Assays:
Assay type in all cases: in vivo
Veronica persica (VERPE) = test: C. Herbicidal pre-emergence efficacy, VERPE; settings: scored after about 3 weeks
Excerpt: (§1) Seeds of monocotyledonous and dicotyledonous weed plants and crop plants were placed in plastic or organic planting pots and covered with soil. The compounds of the invention, formulated in the form of wettable powders (WP) or as emulsion concentrates (EC), were then applied to the surface of the covering soil as aqueous suspension or emulsion with addition of 0.5% additive at a water application rate equivalent to 600 l/ha (converted). After the treatment, the pots were placed in a greenhouse and kept under good growth conditions for the test plants. After about 3 weeks, the efficacy of the preparations was scored visually in comparison with untreated controls as percentages. For example, • 100% efficacy=plants have died, • 0% efficacy=like untreated control plants.
(§2) Tables C1a to C14b below show the effects of selected compounds of the general formula (I) according to table 1 on various harmful plants at an application rate corresponding to 320 g/ha or less, which were obtained by the experimental procedure mentioned above.

Kochia scoparia (KCHSC) [1] = test: A. Herbicidal pre-emergence efficacy, KCHSC
How it was run: (§3)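 Pre-emergence soil-surface spray in sandy loam pots, WP/EC in water plus 0.5% additive, 600 L/ha. Visual % damage rating after about 3 weeks in greenhouse vs. untreated; 0% = control-like, 100% = dead plants. Rates up to 1280 g/ha.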

[2] = tested on: Triticum aestivum (TRZAS); test: F. Post-emergence effect on useful plants, TRZAS; settings: useful plant
Protocol: (§4) Seeds of monocotyledonous and dicotyledonous weeds and crop plants were placed in sandy loam in plastic or organic planting pots, covered with soil and cultivated in a greenhouse under controlled growth conditions. 2 to 3 weeks after sowing, the test plants were treated at the one-leaf stage. The compounds of the invention, formulated in the form of wettable powders (WP) or as emulsion concentrates (EC), were then sprayed onto the green parts of the plants as aqueous suspension or emulsion with addition of 0.5% additive at a water application rate of 600 l/ha (converted). After the test plants had been kept in the greenhouse under optimum growth conditions for about 3 weeks, the activity of the preparations was rated visually in comparison to untreated controls.
(§5) For example, • 100% efficacy=plants have died, • 0% action=like untreated control plants.
Tables F1a to F4 below show the effects of selected compounds of the general formula (I) according to table 1 on various useful plants at an application rate corresponding to 320 g/ha or less, which were obtained by the experimental procedure mentioned above.

Lolium rigidum (LOLRI) = test: A. Herbicidal pre-emergence efficacy, LOLRI
How it was run: as §3

[3] = tested on: Polygonum convolvulus (POLCO); test: C. Herbicidal pre-emergence efficacy, POLCO; settings: scored after about 3 weeks
Excerpt: as §1, §2

[4] = tested on: Abutilon theophrasti (ABUTH); test: E. Herbicidal post-emergence efficacy, ABUTH
Protocol: as §4, §5
Tables E1a to E12b below show the effects of selected compounds of the general formula (I) according to table 1 on various harmful plants at an application rate corresponding to 320 g/ha or less, which were obtained by the experimental procedure mentioned above.

[5] = tested on: Digitaria sanguinalis (DIGSA); test: A. Herbicidal pre-emergence efficacy, DIGSA; settings: scored visually after about 3 weeks vs untreated controls
How it was run: as §3

Kochia scoparia (KCHSC) [6] = test: C. Herbicidal pre-emergence efficacy, KCHSC
Excerpt: as §1, §2

[7] = 80 g/ha, scored visually after about 3 weeks vs untreated controls
[8] = pre-emergence, dosage 1280 g/ha

SMILES	Pre-emergence efficacy against VERPE (Veronica persica (VERPE); 320 g/ha)	Pre-emergence efficacy against KCHSC (Kochia scoparia (KCHSC) [1]; [7])	Pre-emergence efficacy against KCHSC (Kochia scoparia (KCHSC) [1]; pre-emergence, dosage 320 g/ha)	Pre-emergence efficacy against KCHSC (Kochia scoparia (KCHSC) [1]; [8])	Post-emergence efficacy against TRZAS in % ([2]; application rate 80 g/ha)	Pre-emergence efficacy against LOLRI (Lolium rigidum (LOLRI); dosage 1280 g/ha)	Pre-emergence efficacy against POLCO ([3]; 320 g/ha)	Post-emergence efficacy against ABUTH in % ([4]; application rate 80 g/ha)	Post-emergence efficacy against ABUTH in % ([4]; application rate 320 g/ha)	Pre-emergence efficacy against VERPE (Veronica persica (VERPE); 80 g/ha)	Pre-emergence efficacy against DIGSA ([5]; 1280 g/ha)	Post-emergence efficacy against TRZAS in % ([2]; application rate 320 g/ha)	Pre-emergence efficacy against KCHSC in % (Kochia scoparia (KCHSC) [6]; application rate 80 g/ha)	Pre-emergence efficacy against KCHSC in % (Kochia scoparia (KCHSC) [6]; application rate 320 g/ha)	Pre-emergence efficacy against DIGSA ([5]; 320 g/ha)	Pre-emergence efficacy against POLCO ([3]; 80 g/ha)	Pre-emergence efficacy against LOLRI (Lolium rigidum (LOLRI); dosage 320 g/ha)	Pre-emergence efficacy against DIGSA ([5]; 80 g/ha)
O=S(=O)(CCl)Oc1ccccc1Oc1ncc(Cl)cn1 [Example I-9]	100%	90%	100%	100%	20%	90%	90%	80%	80%									
O=S(=O)(CCCC(F)(F)F)Oc1c(Cl)cccc1Oc1ncc(Br)cn1 [Example I-34]	100%			90%	0%		100%	80%	80%	80%	90%	20%	90%	100%				
O=S(=O)(CCCC(F)(F)C(F)(F)F)Oc1c(F)cccc1Oc1ncc(Cl)cn1 [Example I-68]	90%	90%	100%	100%	20%	100%	90%		90%	90%	100%	20%	100%	100%	90%	90%		
O=S(=O)(CCC(F)(F)F)Oc1c(Br)cccc1Oc1ncc(Cl)cn1 [Example I-31]		90%	100%	100%		100%					100%				90%			
CCCCCS(=O)(=O)Oc1ccccc1Oc1ncc(Cl)cn1 [Example I-24]	90%			100%	0%	100%	80%		90%		100%	0%			100%			
Cc1cccc(OS(=O)(=O)CCCCl)c1Oc1ncc(Cl)cn1 [Example I-12]	90%		90%	100%	0%	90%			90%			0%						
CCS(=O)(=O)Oc1ccccc1Oc1ncc(Cl)cn1 [Example I-16]		100%	100%	100%		90%					100%				100%			
O=S(=O)(CCCCl)Oc1cccc(F)c1Oc1ncc(Cl)cn1 [Example I-13]	90%			100%	10%	90%					100%	10%						
O=S(=O)(CCC(F)(F)F)Oc1c(Br)cccc1Oc1ncc(F)cn1 [Example I-43]				100%	0%	100%	90%				100%	0%	100%	100%	100%	90%	100%	
CC(C)CCS(=O)(=O)Oc1ccccc1Oc1ncc(Cl)cn1 [Example I-25]	100%	90%	100%	100%	0%	100%	90%		80%	80%	100%	0%			100%	80%	90%	90%
Cc1cccc(Oc2ncc(Cl)cn2)c1OS(=O)(=O)CC1CC(F)(F)C1 [Example I-74]	100%		90%	100%	0%	100%	90%		90%	80%	100%			90%	100%			
O=S(=O)(CCC(F)(F)F)Oc1c(Cl)cccc1Oc1ncc(Br)cn1 [Example I-32]	100%		90%	100%	0%	90%	100%	80%	80%	80%	90%	20%	100%	100%	90%			
C=CCS(=O)(=O)Oc1ccccc1Oc1ncc(Cl)cn1 [Example I-36]			90%	100%	0%	100%	90%				100%	0%		100%	90%			
O=S(=O)(CC1CC1(Cl)Cl)Oc1c(F)cccc1Oc1ncc(Cl)cn1 (stereo not drawn) [Example I-57]			100%	100%		100%					100%				100%			90%
